From patent US7592188B2, “Live cell biosensors” (The Scripps Research Institute, priority 2004, dated 2009)

Assays:
Cdc42 = molecular target: T1, Cdc42 (Homo sapiens, UniProt P60953); assay: Analysis of Cdc42 activation: fluorescence of dye-labeled WASP fragment; assay type: binding
T1 construct: 6His; made in house; host or cells: E. coli BL21DE3, only by the words 'analogous procedures' to the CBD preparation
Method: Analysis of Cdc42 Activation. A solution of the WASP conjugate (300 nM) in a assay buffer (50 mM Tris-HCl, pH 7.6, 50 mM NaCl, 5 mM MgCl2, 1 mM DTT) was mixed 1:1 (v/v) with solutions of Cdc42, pre-equilibrated with 10 mM GDP or GTPγS as described below. Emission at 630 nm and excitation at 600 nm were used to acquire excitation and emission spectra, respectively. For nucleotide dependence, Cdc42 (500 nM) was preincubated with varying concentrations of GTPγS (1-500 nM).

[1] = Dye photo-bleaching under tungsten lamp irradiation; assay type: physicochemical
Method: Photo-bleaching. All samples contained 1 mM dye in a final volume of 10 mL. For nitrogen and oxygen saturation the samples were bubbled with solvent-saturated gas for 30 min. A 90 W halogen tungsten lamp was employed for irradiation, with a fan used for cooling. The temperature of samples was 25±1° C. during reactions. The absorption spectrum of each sample was measured before irradiation and after every 10 h period. For the trapping experiment thioanisole (1.0 M) was added to oxygen-saturated butanol solution of dye 1b. After 60 h of irradiation the reaction mixture was analyzed by GC-MS for products formed. The products, methylphenylsulfoxide and methylphenyl sulfone, were identified by comparison with authentic samples.
Dyes used in living cells must be photostable to provide many sequential images and to obtain sufficient light from minimal amounts of exogenous labeled material. The photostability of the new dyes was characterized by exposing them to constant illumination from a tungsten lamp filtered through glass, a broad spectrum light source that provided essentially equal intensity throughout the spectral range where the dyes would be irradiated in vivo. A fan was used to prevent heating, and dye solutions were adjusted for equal maximal absorbance, kept below 1 μM to minimize the inner filter effect. […] Photo-bleaching followed first-order kinetics in all cases.

Erk2 = assay: Fluorescence response of dye-labeled Erk2 to phosphorylation; assay type: biochemical
Excerpt: This Example illustrates that the dyes of the invention can be attached directly to a protein of interest (e.g. Erk), where the dyes respond to conformational changes and phosphorylation. In particular, the I-TBA-3CNPh dye was attached to cysteine 214 of the MAP kinase Erk2, where it responded to Erk phosphorylation. A structure for the I-TBA-3CNPh dye is provided below.
This model was based on tryptic digestion combined with mass spectroscopic sequencing of the labeled protein, and on docking studies. The lighter (yellow) residues represent two lysines undergoing hydrogen bonding with the dye, and a tryptophan interacting through π-π stacking. Phosphorylation of the purple residues altered the conformation of the protein, affecting the tryptophan interaction and perturbing some of the hydrogen bonds.

Cdc42 activation = assay: Peripheral Cdc42 activation in cells treated with cytoskeletal agents; assay type: cell-based
Excerpt: Microtubules or actin may direct Cdc42 activation to specific peripheral locations. This possibility was explored by treating cells with the microtubule-depolymerizing agents nocodazole and colchicine, or with cytochalasin D, an inhibitor of actin polymerization. […] Microtubules may therefore localize interactions between Cdc42 and guanine nucleotide exchange factors by directing vesicle trafficking or regulating events at adhesion complexes.

[2] = Quantum yield of triplet state formation; assay type: physicochemical; conditions: in ethanol
[3] = Photophysical properties of dyes in various solvents (absorbance, emission, quantum yield); assay type: physicochemical; set-up: ε × F / ε × Φ: unit not given here
Method: Analytical grade reagents were purchased from major suppliers. […] Emission and excitation spectra were obtained using a Spex Fluorolog 2 spectrofluorometer at 23° C. […] Demas et al., J. Phys. […] All operations with dyes were performed under dim light. Flasks containing dyes were wrapped with aluminum foil.

[4] = Water solubility and aggregation of dyes in water (absorbance spectra)
Excerpt: Labeling was accomplished only by including greater than 5% DMSO as cosolvent.

T1 sequence (P60953 whole entry, species assumed, the tested form may be a part): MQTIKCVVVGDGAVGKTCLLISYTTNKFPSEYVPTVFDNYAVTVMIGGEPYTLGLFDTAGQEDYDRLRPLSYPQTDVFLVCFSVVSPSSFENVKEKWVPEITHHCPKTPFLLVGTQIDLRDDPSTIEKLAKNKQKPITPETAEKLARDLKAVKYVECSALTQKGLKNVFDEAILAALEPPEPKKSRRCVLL

## CCN1/C(=C/C=C/C=C/C2=[N+](CCCCCC(=O)O)c3ccc(S(=O)(=O)O)cc3C2(C)C)C(C)(C)c2cc(S(=O)(=O)[O-])ccc21 [Cy5, reference compound]
Cdc42; control experiments, WASP fragment labeled with Cy3 or Cy5
  change in fluorescence intensity of cyanine-labeled WASP fragment: no change in fluorescence intensity was observed
[1]; BuOH
  Absolute rate constant of dye photo-bleaching, kph × 10^6: 0.77 s^−1
[1]; MeOH
  Absolute rate constant of dye photo-bleaching, kph × 10^6: 1.0 s^−1

## CC1(C)/C(=C\C=C\C=C2C(=O)N(Cc3cccc(C#N)c3)C(=S)N(Cc3cccc(C#N)c3)C2=O)N(CCCNC(=O)CI)c2ccc(S(=O)(=O)O)cc21 [I-TBA-3CNPh]
Erk2; incubation with MEK kinase and ATP
  fluorescence change of dye-labeled Erk2: phosphorylation-induced increase in fluorescence

## COc1cc2c(c(OC)c1OC)-c1ccc(OC)c(=O)cc1[C@@H](NC(C)=O)CC2 [colchicine]
Cdc42 activation
  effect on peripheral Cdc42 activation: markedly affected peripheral Cdc42 activation

## C=C1[C@@H](C)[C@H]2[C@H](Cc3ccccc3)NC(=O)[C@]23[C@H](OC(C)=O)/C=C/[C@@](C)(O)C(=O)[C@@H](C)C/C=C/[C@H]3[C@@H]1O [cytochalasin D]
Cdc42 activation
  effect on peripheral Cdc42 activation: Only nocodazole and colchicine markedly affected peripheral Cdc42 activation

## CCN1/C(=C\C=C\C=C2C(=O)N(C)C(=S)N(C)C2=O)Sc2ccccc21 [dye 1b, 1,3-Dimethyl-5-[(2E,4E)-4-(3-ethyl-1,3-benzothiazol-2(3H)-ylidene)-but-2-enylidene]-2-thioxodihydropyrimidine-4,6(1H,5H)-dione]
[2]
  ΦT, quantum yield of triplet state formation: 0.008
[3]; solvent BuOH
  Abs. λmax: 595 nm
  Emission λmax: 613 nm
  Φ (quantum yield of fluorescence): 0.26
  ε (molar extinction coefficient): (188000)
  ε × F: 49000
[3]; solvent C6H6
  Abs. λmax: 600 nm
  Emission λmax: 617 nm
  Φ (quantum yield of fluorescence): 0.37
  ε (molar extinction coefficient): (184000)
  ε × F: 68000
[3]; solvent DMF
  Abs. λmax: 595 nm
  Emission λmax: 613 nm
  Φ (quantum yield of fluorescence): 0.32
  ε (molar extinction coefficient): (194000)
  ε × F: 62000
[3]; solvent MeOH
  Abs. λmax: 583 nm
  Emission λmax: 606 nm
  Φ (quantum yield of fluorescence): 0.13
  ε (molar extinction coefficient): (134000)
  ε × F: 18000
[3]; solvent OcOH
  Abs. λmax: 598 nm
  Emission λmax: 615 nm
  Φ (quantum yield of fluorescence): 0.52
  ε (molar extinction coefficient): (220000)
  ε × F: 115000
[1]; BuOH
  Absolute rate constant of dye photo-bleaching, kph × 10^6: 5.2 s^−1
[1]; MeOH
  Absolute rate constant of dye photo-bleaching, kph × 10^6: 4.3 s^−1

## CN1C(=O)C(=C/C=C/C=C2/Sc3ccccc3N2CCCS(=O)(=O)[O-])C(=O)N(C)C1=S.[Na+] [dye 1c, Sodium 3-[(2E)-2-[(2E)-4-(1,3-Dimethyl-4,6-dioxo-2-thioxotetrahydro-pyrimidin-5(2H)-ylidene)but-2-enylidene]-1,3-benzothiazol-3(2H)-yl]propane-1-sulfonate]
[4]; in words
  water solubility: significantly improved

## CN1C(=O)C(=C/C=C/C=C2\N(C)c3ccccc3C2(C)C)C(=O)N(C)C1=S [dye 3a, 1,3-Dimethyl-2-thioxo-5-[(2E,4Z)-4-(1,3,3-trimethyl-1,3-dihydro-2H-indol-2-ylidene)but-2-enylidene]dihydropyrimidine-4,6(1H,5,H)-dione]
[2]
  ΦT, quantum yield of triplet state formation: 0.003
[3]; solvent BuOH
  Abs. λmax: 589 nm
  Emission λmax: 609 nm
  Φ (quantum yield of fluorescence): 0.61
  ε (molar extinction coefficient): (190000)
  ε × F: 116000
[3]; solvent C6H6
  Abs. λmax: 584 nm
  Emission λmax: 605 nm
  Φ (quantum yield of fluorescence): 0.20
  ε (molar extinction coefficient): (127000)
  ε × F: 26000
[3]; solvent DMF
  Abs. λmax: 589 nm
  Emission λmax: 611 nm
  Φ (quantum yield of fluorescence): 0.94
  ε (molar extinction coefficient): (183000)
  ε × F: 172000
[3]; solvent MeOH
  Abs. λmax: 583 nm
  Emission λmax: 603 nm
  Φ (quantum yield of fluorescence): 0.26
  ε (molar extinction coefficient): (173000)
  ε × F: 45000
[3]; solvent OcOH
  Abs. λmax: 590 nm
  Emission λmax: 609 nm
  Φ (quantum yield of fluorescence): 0.99
  ε (molar extinction coefficient): (180000)
  ε × F: 178000
[1]; BuOH
  Absolute rate constant of dye photo-bleaching, kph × 10^6: 0.78 s^−1
[1]; MeOH
  Absolute rate constant of dye photo-bleaching, kph × 10^6: 0.18 s^−1

## CN1\C(=C/C=C/C=C2/C(=O)c3ccccc3S2(=O)=O)C(C)(C)c2ccccc21 [dye 4a, (2Z)-2-[(2E,4Z)-4-(1,3,3-Trimethyl-1,3-dihydro-2H-indol-2-ylidene)-but-2-enylidene]-1-benzothiophen-3(2H)-one 1,1-Dioxide]
[3]; solvent BuOH
  Abs. λmax: 587 nm
  Emission λmax: 618 nm
  Φ (quantum yield of fluorescence): 0.54
  ε (molar extinction coefficient): (134000)
  ε × F: 72000
[3]; solvent C6H6
  Abs. λmax: 571 nm
  Emission λmax: 603 nm
  Φ (quantum yield of fluorescence): 0.42
  ε (molar extinction coefficient): (109000)
  ε × F: 46000
[3]; solvent DMF
  Abs. λmax: 586 nm
  Emission λmax: 615 nm
  Φ (quantum yield of fluorescence): 0.97
  ε (molar extinction coefficient): (143000)
  ε × F: 140000
[3]; solvent MeOH
  Abs. λmax: 586 nm
  Emission λmax: 615 nm
  Φ (quantum yield of fluorescence): 0.08
  ε (molar extinction coefficient): (143000)
  ε × F: 12000
[3]; solvent OcOH
  Abs. λmax: 587 nm
  Emission λmax: 617 nm
  Φ (quantum yield of fluorescence): 0.98
  ε (molar extinction coefficient): (125000)
  ε × F: 123000
[1]; BuOH
  Absolute rate constant of dye photo-bleaching, kph × 10^6: 0.65 s^−1
[1]; MeOH
  Absolute rate constant of dye photo-bleaching, kph × 10^6: 0.28 s^−1

## COC(=O)Nc1nc2ccc(C(=O)c3cccs3)cc2[nH]1 [nocodazole]
Cdc42 activation
  effect on peripheral Cdc42 activation: markedly affected peripheral Cdc42 activation

## Sodium 3-{(2Z)-5-2-[(2E,4Z)-4-(1,1-Dioxido-3-oxo-1-benzothien-2(3H)-ylidene)but-2-enylidene]-3,3-dimethyl-2,3-dihydro-1H-indol-1-yl}propane-1-sulfonate [dye 4b]
[4]; in water, absorbance spectrum
  concentration at which dye did not aggregate: greater than 250 μM

## labeled Erk2 protein: MAP kinase Erk2 with I-TBA-3CNPh dye attached to cysteine 214
Erk2; Western blots, substrate Elk
  phosphorylation activity of labeled Erk2: retains phosphorylation activity

B1: labeled WASP fragment: WASP fragment (residues 201-320, F271C) derivatized with S—SO dye 2e (conjugate)
chain: DIQNPDITSSRYRGLPAPGPSPADKKRSGKKKISKADIGAPSGFKHVSHVGWDPQNGFDVNNLDPDLRSLCSRAGISEAQLTDAETSKLIYDFIEDQGGLEAVRQEMRRQEPLPPPPPPS
modifications: left off: small tags and cut ends
notes: WASP fragment (residues 201-320, F271C) derivatized with S—SO dye 2e
Cdc42; incubated with activated Cdc42
  increase in fluorescence intensity: 300%
